Assay results as given in publication PMC8652888, “Angiogenesis, Anti-Tumor, and Anti-Metastatic Activity of Novel α-Substituted Hetero-Aromatic Chalcone Hybrids as Inhibitors of Microtubule Polymerization” (Frontiers in Chemistry, 2021).
Values joined by “and” are separate entries in the source; they are usually repeats but may differ in a detail not shown here. Equal entries are not always repeated. Where two headings read alike, the source gives them in different places.

Experiments:
U937 = assay: Antiproliferative activity, CCK-8 assay; type: cell-based; conditions: Homo sapiens, U-937
Procedure: (§1) The synthesized compounds were first evaluated for their cytotoxic effect on MCF-7 (human breast adenocarcinoma), U937 (histiocytic lymphoma cancer), HepG2 (human liver cancer) cells, and MGC-803 (human gastric cancer) using the SRB and CCK-8 assay. As reference compounds CA-4 and colchicine were included.
(§2) The primary tumor cells were purchased from a professional biomedical company. First, the primary tumor cells were incubated in a cell culture incubator at 37°C and 5% CO2. After the cell fusion reached 85%–95%, subculture was performed, and the tumor cells obtained at this time were used for subsequent related experiments. The CCK-8 method was used to inhibit the proliferation of U937 tumor cells, and the SRB method was used to inhibit the proliferation of MCF7 and HepG2 tumor cells.
The cells in the logarithmic growth phase were seeded in a 96-well plate at 8,000/well, and the drug-containing medium and cell suspension were added to the well. Three wells were added with the blank medium as the blank group. The 96-well plate was incubated for 72 h in a 37°C, 5% CO2 incubator. The 10 μl of CCK-8 dye solution was added to each well, and the incubation continued for 3–4 h.

HepG2 = assay: Antiproliferative activity, SRB assay; type: cell-based, human; conditions: Homo sapiens, HepG2; 72 h, triplicate, mean ± SD; read-out: IC50 ± SD, HepG2
Procedure: as §1, §2
Cells were distributed into 96-well plates with a density of 3 × 10^3–4 × 10^3 cells per well and incubated for 24 h in a 5% CO2 incubator at 37°C, followed by treatment with study compounds at different concentrations at 37°C for 72 h. One hundred microliters of 10% (w/v) trichloroacetic acid was added to each well, fixed at 4°C for 30 min, and dried at 65°C. Then 100 μl of 0.4% SRB was added to each well and stained on a shaker for 20 min at room temperature. The excess dye solution was washed with newly prepared 1% glacial acetic acid and dried at 65°C. One hundred fifty microliters of 10 mM unbuffered Trisbase was added to each well of the plate and shaken for 5 min to dissolve the dye. The microplate reader measured the optical density (OD) at a wavelength of 560 nm.

MGC-803 = assay: Antiproliferative activity (SRB and CCK-8 assay); type: cell-based; conditions: Homo sapiens
Text: as §1

MCF-7 = assay: Antiproliferative activity, SRB assay; type: cell-based, human;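 note: proliferation of MCF7 cells quantified by sulforhodamine B staining, with optical density read at 560 nm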
[1] = tested on: taxol-resistant MCF7 cells (MCF7/Tax); assay: Growth inhibition of taxol-resistant cells; type: cell-based, human
normal liver LO2 cells = assay: Growth inhibition of normal cells; type: cell-based, human
[2] = 72 h, triplicate, mean ± SD, read-out: IC50 ± SD, U937
[3] = triplicate, mean ± SD, read-out: IC50 ± SD, MGC-803
[4] = Homo sapiens, MCF7, 72 h, 72 h, triplicate, mean ± SD, read-out: IC50 ± SD, MCF-7
[5] = supplement raw data, read-out: IC50/MGC
[6] = supplement raw data of table 2, read-out: IC50(U937)

Row | Structure (SMILES) | IC50 (U937; [2]) [µM] | IC50 (HepG2) [µM] | IC50 (MGC-803; [3]) [µM] | melting point [°C] | IC50 (MCF-7; [4]) [µM] | further results
1 | COc1cc(C(=O)/C=C/c2cc3ccccc3s2)cc(OC)c1OC [Compound 6o, (E)-3-(benzo[b]thiophen-2-yl)-1-(3,4,5-trimethoxyphenyl)prop-2-en-1-one] | > 20 | 8.38 ± 0.585 | 1.38 ± 0.086 | 115.5 to 116.9 | 2.07 ± 0.043 | 
2 | COc1cc(C(=O)/C=C/c2csc3ccccc23)cc(OC)c1OC [Compound 6p, (E)-3-(benzo[b]thiophen-3-yl)-1-(3,4,5-trimethoxyphenyl)prop-2-en-1-one] | > 20 | 1.38 ± 0.136 | 0.076 ± 0.001 | 95.5 to 96.4 | 0.283 ± 0.011 | IC50 (MGC-803; [5]): 0.0757 µM; IC50 (MCF-7; Homo sapiens, MCF7, supplement raw data, read-out: IC50/MCF): 0.283 µM
3 | COc1cc(C(=O)/C=C/c2ccc3sc4ccccc4c3c2)cc(OC)c1OC [Compound 6q, (E)-3[dibenzo (b,d)thiophen-2-yl]-1-(3,4,5-trimethoxyphenyl)prop-2-en-1-one] | 6.38 ± 0.148 | 10.7 ± 0.457 | 3.22 ± 0.284 | 118.7 to 119.2 | 5.09 ± 0.569 | 
4 | COc1cc(C(=O)/C=C/c2nc3ccccc3n2C)cc(OC)c1OC [Compound 6r, (E)-3-[1-methyl-1H-benzo (d)imidazol-2-yl]-1-(3,4,5-trimethoxyphenyl)prop-2-en-1-one] | 1.28 ± 0.071 | 4.67 ± 0.295 | 2.03 ± 0.225 | 123.5 to 125.2 | 5.19 ± 0.465 | 
5 | COc1cc(C(=O)/C=C/c2cccc3c2OCO3)cc(OC)c1OC [Compound 6s, (E)-3-(benzo[d][1,3]dioxol-4-yl)-1-(3,4,5-trimethoxyphenyl)prop-2-en-1-one] | > 20 | 3.32 ± 0.229 | 0.393 ± 0.017 | 138.4 to 140.3 | 1.23 ± 0.133 | IC50 (MGC-803; [5]): 0.393 µM
6 | COc1cc(C(=O)/C(C#N)=C/c2ccc3sc4ccccc4c3c2)cc(OC)c1OC [Compound 8q, (E)-3-[dibenzo (b,d)thiophen-2-yl]-2-(3,4,5-trimethoxybenzoyl)acrylonitrile] | 52.3 ± 3.66 | > 20 |  | 199.7 to 201.1 | > 20 | IC50 (U937; [6]): 52.3 µM
7 | COc1cc(C(=O)/C(C#N)=C/c2nc3ccccc3n2C)cc(OC)c1OC [Compound 8r, (E)-3-[1-methyl-1H-benzo (d)imidazol-2-yl]-2-(3,4,5-trimethoxybenzoyl)acrylonitrile] | 24.9 ± 2.02 | > 20 |  | 201.8 to 203.1 | > 20 | IC50 (U937; [6]): 24.9 µM
8 | COc1cc(C(=O)/C(C#N)=C/c2cccc3c2OCO3)cc(OC)c1OC [Compound 8s, (E)-3-[benzo(d)(1,3)dioxol-4-yl]-2-(3,4,5-trimethoxybenzoyl)acrylonitrile] | > 20 | > 20 |  | 176.3 to 177.8 | > 20 | 
9 | COc1cc(C(=O)/C(C#N)=C/c2cc3c(cc2Br)OCO3)cc(OC)c1OC [Compound 8t, (E)-3-[6-bromobenzo(d)(1,3)dioxol-5-yl]-2-(3,4,5-trimethoxybenzoyl)acrylonitrile] | > 20 | > 20 |  | 207.1 to 209 | > 20 | 
10 | CC(=O)O[C@H]1C(=O)[C@@]2(C)[C@H]([C@H](OC(=O)c3ccccc3)[C@]3(O)C[C@H](OC(=O)[C@H](O)[C@@H](NC(=O)c4ccccc4)c4ccccc4)C(C)=C1C3(C)C)[C@]1(OC(C)=O)CO[C@@H]1C[C@@H]2O [Taxol, paclitaxel] |  |  |  |  |  | Resistant fold ([1]; (IC50 MCF7/Tax)/(IC50 MCF7)): 13.7; IC50 ([1]; Homo sapiens, MCF7, three single determinations, read-out: MCF-7/Taxol (raw data of table 3, IC50)): 0.334 µM; IC50 ([1]; Homo sapiens, MCF7, triplicate, read-out: IC50 ± SD, MCF7/Tax): 0.336 ± 0.018 µM; IC50 ([1]; three single determinations, listed as TaxolL, read-out: MCF-7/Taxol (raw data of table 3, IC50)): 0.315 µM and 0.359 µM; Selectivity ratio (normal liver LO2 cells; (IC50 human normal cells LO2)/(IC50 MCF7)): 1.3; IC50 (normal liver LO2 cells; Homo sapiens, L02, three single determinations, read-out: L02 (raw data of table 3, IC50)): 0.0321 µM; IC50 (normal liver LO2 cells; Homo sapiens, L02, triplicate, read-out: IC50 ± SD, LO2): 0.0324 ± 0.0019 µM; IC50 (normal liver LO2 cells; three single determinations, listed as TaxolL, read-out: L02 (raw data of table 3, IC50)): 0.0345 µM and 0.0306 µM; IC50 (MCF-7; Homo sapiens, MCF7, Table 3, triplicate, read-out: IC50 ± SD, MCF7): 0.0246 ± 0.0032 µM; IC50 (MCF-7; Homo sapiens, MCF7, three single determinations, read-out: MCF-7 (raw data of table 3, IC50)): 0.0206 µM; IC50 (MCF-7; three single determinations, listed as TaxolL, read-out: MCF-7 (raw data of table 3, IC50)): 0.0283 µM and 0.0249 µM
